Measured values published in patent EP4201929A1, “QUINOXALINE THIOREDOXIN REDUCTASE INHIBITORS” (geneXplain GmbH, priority 2021, dated 2023).

Experiments:
Test in all cases: Growth suppression, cancer cell line panel (resazurin)
Type in all cases: cell-based
OVCAR4 = OVCAR4 ovarian, 48 hours
Procedure: (§1) Breast, colon, ovarian, cervical, liver and lung carcinoma cell lines were grown in DMEM supplemented with 10% FBS, and antibiotics were cultured at 37 °C and 5% CO2. Osteosarcoma, melanoma, lymphoma, neuroblastoma and leukemia cell lines were cultured in RPMI 1640 with 10% FBS and antibiotics. An oxygen concentration of 0.3% was obtained by flushing a sealed box containing the cells with premixed gas composed of 95% nitrogen (N2) and 5% CO2 (AGA AB, Sweden). To obtain an oxygen concentration of 0.05%, the cells were flushed with the premixed gas continuously throughout the experiment.
(§2) Cells were grown in 96-well plates at a density of 3000 cells per well with or without doxycycline and treated with compounds. After 48 hours of incubation the proliferative cell reagent resazurin (Thermo Fisher Scientific) was added to the cells. The degree of resazurin reduction, which reflects cell viability, was measured by microplate reader by monitoring the absorbance at 570 nm and 600 nm, according to the manufacturer.
(§3) Growth suppression by the soluble compound 1d*HCl in a panel of 27 cancer cell lines. The panel of cancer cell lines, including carcinomas of breast (MDA-MB231, SKBR3, T47D, MCF7; BT549, BT20, MDA-MB468), colon, (SW480, RKO, HT29, HCT116) ovarian (OVCAR3, OVCAR4, OVCAR8), cervical (SW756, C33A), liver (HEPG2) and lung (H23), osteosarcoma (SJSA and U2OS), melanoma (ME180), lymphoma (Raji, HDLM2), neuroblastoma (SKNAS, IMR32) and leukemia (NB4, K562) were treated with increasing concentrations of 1d*HCl: 0.4; 0.8; 1.6; 3.2; 6.4; 12.8; 25.6 µM in 96-well plates. After 48 hours of incubation the proliferative cell reagent resazurin was added to the cells. The degree of resazurin reduction, which reflects cell viability, was measured by microplate reader by monitoring the absorbance at 570 nm and 600 nm, according to the manufacturer, and the IC50 and AUC (area under curve) were determined (Table 2). As could be seen in Table 2, 1d*HCl suppressed the growth of cancer cell lines of a different origin, including carcinomas, osteosarcomas, melanoma, lymphoma, leukemia and neuroblastoma. These findings open up a possibility of the application of the present invention in anti-cancer therapy in a broad range of tumor types. Table 2: a) Breast cancer

NB4 = NB4 leukemia, 48 hours
Procedure: as §1, §2, §3

C33A = C33A cervical, 48 hours
Procedure: as §1, §2, §3

HCT116 = HCT116 colon, 48 hours
Procedure: as §1, §2, §3

MDA- MB231 = details: MDA-MB231 breast, 48 hours
Procedure: as §1, §2, §3

HDLM2 = HDLM2 lymphoma, 48 hours
Procedure: as §1, §2, §3

RKO = RKO colon, 48 hours
Procedure: as §1, §2, §3

BT20 = BT20 breast, 48 hours
Procedure: as §1, §2, §3

SKNAS = SKNAS neuroblastoma, 48 hours
Procedure: as §1, §2, §3

OVCAR8 = OVCAR8 ovarian, 48 hours
Procedure: as §1, §2, §3

U2OS = U2OS osteosarcoma, 48 hours
Procedure: as §1, §2, §3

OVCAR3 = OVCAR3 ovarian, 48 hours
Procedure: as §1, §2, §3

BT549 = BT549 breast, 48 hours
Procedure: as §1, §2, §3

HT29 = HT29 colon, 48 hours
Procedure: as §1, §2, §3

MDA-MB-468 = MDA-MB-468 breast, 48 hours
Procedure: as §1, §2, §3

Raji = Raji lymphoma, 48 hours
Procedure: as §1, §2, §3

H23 = H23 lung, 48 hours
Procedure: as §1, §2, §3

SW480 = SW480 colon, 48 hours
Procedure: as §1, §2, §3

MCF7 = MCF7 breast, 48 hours
Procedure: as §1, §2, §3

HepG2 = HepG2 liver, 48 hours
Procedure: as §1, §2, §3

SJSA = SJSA osteosarcoma, 48 hours
Procedure: as §1, §2, §3

IMR32 = IMR32 neuroblastoma, 48 hours
Procedure: as §1, §2, §3

[1] = Homo sapiens, resazurin, read-out: ICso

Compound: Cl.N#Cc1c(-c2cccnc2)[n+]([O-])c2cc(F)c(N3CCOCC3)cc2[n+]1[O-] [1d*HCl, 6-Fluoro-7-(morpholin-4-yl)-3-(pyridin-3-yl)quinoxaline-2-carbonitrile-1,4-dioxide hydrochloride]
- IC50 (OVCAR4; Homo sapiens, OVCAR-4, resazurin): 1.57 µM
- AUC (OVCAR4; area under curve, 0.4-25.6 µM): 3,7
- IC50 (NB4; resazurin): variable
- AUC (NB4; area under curve, 0.4-25.6 µM): 25,4
- IC50 (C33A; resazurin): variable
- AUC (C33A; area under curve, 0.4-25.6 µM): 21
- AUC (HCT116; area under curve, 0.4-25.6 µM): 1,37
- IC50 (HCT116; Homo sapiens, HCT-116, resazurin): 0.86 µM
- IC50 (MDA- MB231; Homo sapiens, MDA-MB-231, resazurin): 0.78 µM
- AUC (MDA- MB231; area under curve, 0.4-25.6 µM): 1,21
- AUC (HDLM2; area under curve, 0.4-25.6 µM): 4,68
- IC50 (HDLM2; Homo sapiens, HDLM-2, resazurin): 1.27 µM
- IC50 (RKO; Homo sapiens, resazurin): 0.538 µM
- AUC (RKO; area under curve, 0.4-25.6 µM): 0,942
- AUC (BT20; area under curve, 0.4-25.6 µM): 9,64
- IC50 (BT20; Homo sapiens, BT-20, resazurin): 5.91 µM
- IC50 (SKNAS; Homo sapiens, SK-N-AS, resazurin, read-out: ICso): 4.68 µM
- AUC (SKNAS; area under curve, 0.4-25.6 µM): 7,73
- IC50 (OVCAR8; Homo sapiens, OVCAR-8, resazurin): 2.36 µM
- AUC (OVCAR8; area under curve, 0.4-25.6 µM): 2,98
- IC50 (U2OS; [1]): 1.04 µM
- AUC (U2OS; area under curve, 0.4-25.6 µM): 2,10
- IC50 (OVCAR3; Homo sapiens, OVCAR-3, resazurin): 2.64 µM
- AUC (OVCAR3; area under curve, 0.4-25.6 µM): 4,813
- AUC (BT549; area under curve, 0.4-25.6 µM): 2,52
- IC50 (BT549; Homo sapiens, BT-549, resazurin): 1.7 µM
- AUC (HT29; area under curve, 0.4-25.6 µM): 4,77
- IC50 (HT29; Homo sapiens, HT-29, resazurin): 3.5 µM
- IC50 (MDA-MB-468; Homo sapiens, resazurin): 2.78 µM
- AUC (MDA-MB-468; area under curve, 0.4-25.6 µM): 4,04
- IC50 (Raji; Homo sapiens, resazurin): 1.22 µM
- AUC (Raji; area under curve, 0.4-25.6 µM): 2,93
- AUC (H23; area under curve, 0.4-25.6 µM): 5,38
- IC50 (H23; Homo sapiens, NCI-H23, resazurin, read-out: ICso): 3.54 µM
- IC50 (SW480; Homo sapiens, resazurin): 3.72 µM
- AUC (SW480; area under curve, 0.4-25.6 µM): 4,78
- IC50 (MCF7; Homo sapiens, resazurin): 2.54 µM
- AUC (MCF7; area under curve, 0.4-25.6 µM): 3,64
- AUC (HepG2; area under curve, 0.4-25.6 µM): 4,54
- IC50 (HepG2; [1]): 3.59 µM
- IC50 (SJSA; resazurin, read-out: ICso): 4.08 µM
- AUC (SJSA; area under curve, 0.4-25.6 µM): 4,96
- IC50 (IMR32; Homo sapiens, IMR-32, resazurin, read-out: ICso): 5.15 µM
- AUC (IMR32; area under curve, 0.4-25.6 µM): 6,40
